Earlier results in article PMC4245168 (ACS Chemical Biology, 2014).

Test system: parent TPR2A protein
Settings: MEAVD versus MEEVD, ref [8]; cited from earlier work

## MEAVD
  ΔΔG associated with the difference between MEAVD and MEEVD binding: ~0.6 kcal/mol
